Source: patent EP0223143A2, “Analogs of atrial natriuretic peptides” (CALIFORNIA BIOTECHNOLOGY, INC., priority 1985, dated 1987)
“Also recorded” adds a separate entry of the source. Where a SMILES comes first, the peptide text is derived from it. Bridges are numbered along the chain shown (N, C = ends). Where no end group is shown, it is not given here. [ ]: non-standard residue; d: D form. The star is where a group is joined. Phenylacetyl(4-Ph) = O=C(Cc1ccc(-c2ccccc2)cc1)*; Acetyl(2-naphthyloxy) = O=C(COc1ccc2ccccc2c1)*; Acetyl(2-naphthyl) = O=C(Cc1ccc2ccccc2c1)*

What was measured:
[1] = test system: specific receptor sites on BASM or BAE cells; test: competitive displacement receptor binding assay (Tables IA-IE); parameters: species or system bovine; details: statements in words on Tables IA-IE; displacement of [^125I]-rANP(126-150)
Text: (§1) An assay has been developed, generally in accordance with the disclosure of Schenk, supra, and Scarborough, R.M. et al., J. Biol. Chem. 261:12960-12964 (1986), which evaluates the ability of ANP analogs to compete with a labeled native ANP for binding to cultured BASM and BAE cells. This native ANP, having the amino acid sequence: [drawing 103] was iodinated on the Carboxy-terminal Y residue and is identified as […]. Analogous "competitive displacement" receptor binding assays are considered commonplace in the art for examining specific ligand-receptor interactions.
(§2) Assuming these ANP analogs act at one or more ANP receptor sites, then increased receptor affinity should reflect increased biological potency.

[2] = test system: pentobarbital anesthetized dogs; test: diuresis and natriuresis in anesthetized dogs; type: in vivo; details: vs saline controls
Experimental: In these examples, cannulae were placed in the left and right ureters and femoral vein of anesthetized dogs and urine was collected from the ureters. Analog peptides were administered via the femoral vein. Prior to infusing analog peptides, saline was infused for 30 minutes and urine was then collected for three ten minute collection periods. Urine volume was determined gravimetrically and urine sodium was determined photometrically.
Following these three baseline collection periods, the selected analog peptides were infused for 60 minutes and urinary flow was measured for an additional 60 minutes following infusion. During infusion (60 minutes) and recovery (60 minutes), ten minute collection periods were obtained. Control animals which received only saline were studied in parallel.

[3] = test system: anesthetized rats; test: diuresis in anesthetized rats; type: in vivo; details: compared with baseline, Figure 2
Experimental: In one set of examples, cannulae were placed in the left and right ureters and femoral vein of anesthetized rats and urine was collected from the ureters. Analog peptides were administered via the femoral vein. Prior to infusing the analog peptides, saline was infused for 30 minutes, urine was collected for 6 five minutes baseline periods and urine volume was determined gravimetrically. Following these baseline collection periods, various analog peptides were infused for 30 or 60 minutes and urine volume was measured in five minute periods during infusion and for 60 minutes following infusion (at which time rats were returned to saline). Data was examined by averaging urine flow rates for six five- minute baseline control periods immediately preceding infusion, and comparing values during and after administration of peptides with the "baseline" control values. Responses to peptides are thus evaluated and plotted as the percent of baseline control responses. Specific examples are shown in Figures 2A-H. The error bars at the beginning of the graphs represent baseline values ± standard deviations. Responses to peptides that are substantially above baseline ± SD can thus be interpreted as being statistically significant increases.

[4] = molecular target: T1, BASM cell-associated receptors (Bos taurus, UniProt P10730); test: competitive displacement receptor binding assay, BASM cells (Figure 1); parameters: species or system bovine; details: 0.5 nM [^125I]-rANP(126-150), increasing concentrations of unlabeled peptide
T1 construct: endogenous in cells; host or cells: cultured BASM cells
T1 sequence (P10730 42-537): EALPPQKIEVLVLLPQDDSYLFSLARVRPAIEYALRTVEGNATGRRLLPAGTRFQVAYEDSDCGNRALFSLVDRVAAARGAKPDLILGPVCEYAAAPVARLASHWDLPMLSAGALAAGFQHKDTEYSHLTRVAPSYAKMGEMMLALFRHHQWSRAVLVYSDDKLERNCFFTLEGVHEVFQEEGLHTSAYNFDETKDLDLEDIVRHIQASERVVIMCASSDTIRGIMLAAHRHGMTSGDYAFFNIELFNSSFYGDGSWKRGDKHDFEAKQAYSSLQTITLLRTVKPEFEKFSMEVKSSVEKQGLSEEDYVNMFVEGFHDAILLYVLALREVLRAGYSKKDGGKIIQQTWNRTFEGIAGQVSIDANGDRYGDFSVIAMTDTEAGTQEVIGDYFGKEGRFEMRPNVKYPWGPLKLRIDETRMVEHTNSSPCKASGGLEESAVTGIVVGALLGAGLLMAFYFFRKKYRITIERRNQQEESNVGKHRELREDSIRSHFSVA
Text: as §1, §2

[5] = infused at 3 µg/kg/minute for 60 minutes
[6] = infused at 1 µg/kg/minute for 60 minutes

In the case of `CC[C@H](C)[C@@H]1NC(=O)[C@H](CCCNC(=N)N)NC(=O)[C@H](CC(=O)O)NC(=O)[C@H]([C@@H](C)CC)NC(=O)[C@H](CCCNC(=N)N)NC(=O)CNC(=O)[C@@H](NC(=O)[C@H](CO)NC(=O)[C@H](CO)NC(=O)[C@@H](N)CCCNC(=N)N)CSSC[C@@H](C(=O)N[C@@H](CC(N)=O)C(=O)N[C@@H](CO)C(=O)N[C@@H](Cc2ccccc2)C(=O)N[C@@H](CCCNC(=N)N)C(=O)N[C@@H](Cc2ccc(O)cc2)C(=O)O)NC(=O)CNC(=O)[C@H](CC(C)C)NC(=O)CNC(=O)[C@H](CO)NC(=O)[C@H](CCC(N)=O)NC(=O)[C@H](C)NC(=O)CNC1=O` [AP24, R-S-S-C-G-R-I-D-R-I-G-A-O-S-G-L-G-C-N-S-F-R-Y] (H-RSSCGRIDRIGAQSGLGCNSFRY-OH; disulfide 4-18), the “receptor binding affinity (Ki(app))” value [1] is reported as “weaker apparent affinity”.
`CC[C@H](C)[C@H](NC(=O)[C@H](CCCNC(=N)N)NC(=O)[C@H](CC(=O)O)NC(=O)[C@@H](NC(=O)[C@@H](CCCNC(=N)N)NC(=O)CNC(=O)CNC(=O)[C@H](Cc1ccccc1)NC(=O)[C@H](C)N)[C@@H](C)CC)C(=O)NCC(=O)N[C@@H](C)C(N)=O` [AP301, A-F-G-G-[D-R]-I-D-R-I-G-A-NH2] (H-AFGG[dR]IDRIGA-NH2) was tested, and the “receptor binding affinity (Ki(app))” value [1] was “inactive”.
With `CC[C@H](C)[C@H](NC(=O)[C@H](CCCNC(=N)N)NC(=O)[C@@H](CC(=O)O)NC(=O)[C@@H](NC(=O)[C@H](CCCNC(=N)N)NC(=O)CNC(=O)CNC(=O)[C@H](Cc1ccccc1)NC(=O)[C@H](C)N)[C@@H](C)CC)C(=O)NCC(=O)N[C@@H](C)C(N)=O` [AP303, A-F-G-G-R-I-[D-D]-R-I-G-A-NH,] (H-AFGGRI[dD]RIGA-NH2) the “receptor binding affinity (Ki(app))” value [1] was “inactive”.
`CC[C@H](C)[C@H](NC(=O)[C@H](CCCNC(=N)N)NC(=O)CNC(=O)CNC(=O)[C@H](Cc1ccccc1)NC(=O)[C@H](C)N)C(=O)N[C@@H](CC(=O)O)C(=O)N[C@H](CCCNC(=N)N)C(=O)N[C@H](C(=O)NCC(=O)N[C@@H](C)C(N)=O)[C@@H](C)CC` [AP304, A-F-G-G-R-I-D-[D-R]-I-G-A-NH2] (H-AFGGRID[dR]IGA-NH2) was tested, and the “receptor binding affinity (Ki(app))” value [1] was “inactive”.
With `CC[C@H](C)[C@H](NC(=O)[C@H](CCCNC(=N)N)NC(=O)[C@H](CC(=O)O)NC(=O)[C@@H](NC(=O)[C@H](CCCNC(=N)N)NC(=O)CNC(=O)CNC(=O)Cc1ccc2ccccc2c1)[C@@H](C)CC)C(=O)NCC(=O)N[C@@H](C)C(N)=O` [AP306, [2-Napthylacetyl]-G-G-R-I-D-R-I-G-A-NH2] ({Acetyl(2-naphthyl)}-GGRIDRIGA-NH2) the urinary sodium excretion [2, 5] was “significantly increased”, the “urine flow rate (urine volume)” value [2, 5] was “significantly increased” and the “receptor binding affinity (Ki(app))” value [1] was “high binding affinity; also recorded: substantial Ki(app)s”.
For `CC[C@H](C)[C@H](NC(=O)[C@H](CCCNC(=N)N)NC(=O)[C@H](CC(=O)O)NC(=O)[C@@H](NC(=O)[C@H](CCCNC(=N)N)NC(=O)CNC(=O)CNC(=O)Cc1ccc2ccccc2c1)[C@@H](C)CC)C(N)=O` [AP314, [2-Napthylacetyl]-G-G-R-I-D-R-I-NH2] ({Acetyl(2-naphthyl)}-GGRIDRI-NH2), the urinary sodium excretion [2, 6] was “significantly increased”, the “urine flow rate (urine volume)” value [2, 6] was “significantly increased” and the “receptor binding affinity (Ki(app))” value [1] was “high binding affinity; also recorded: substantial Ki(app)s”.
With `CC[C@H](C)[C@H](NC(=O)[C@H](CCCNC(=N)N)NC(=O)[C@H](CC(=O)O)NC(=O)[C@@H](NC(=O)[C@H](CCCNC(=N)N)NC(=O)CNC(=O)CNC(=O)Cc1ccc(-c2ccccc2)cc1)[C@@H](C)CC)C(N)=O` [AP317, [4-Biphenylacetyl]-G-G-R-I-D-R-I-NH2] ({Phenylacetyl(4-Ph)}-GGRIDRI-NH2) the “receptor binding affinity (Ki(app))” value [1] was “greatly diminished activity”.
In the case of `CC[C@H](C)[C@H](NC(=O)[C@H](CCCNC(=N)N)NC(=O)[C@H](CC(=O)O)NC(=O)[C@@H](NC(=O)[C@H](CCCNC(=N)N)NC(=O)CNC(=O)CNC(=O)COc1ccc2ccccc2c1)[C@@H](C)CC)C(N)=O` [AP319, [2-Napthoxyacetyl]-G-G-R-I-D-R-I-NH2] ({Acetyl(2-naphthyloxy)}-GGRIDRI-NH2), the “receptor binding affinity (Ki(app))” value [1] is reported as “high binding affinity” and the “urine flow rate (urine volume)” value ([3]; infused at 10 µg/min via femoral vein) is reported as “significantly increased”.
In the case of `CC[C@H](C)[C@H](NC(=O)[C@H](CCCNC(=N)N)NC(=O)[C@H](CC(=O)O)NC(=O)[C@@H](NC(=O)[C@H](CCCNC(=N)N)NC(=O)CNC(=O)[C@@H](C)NC(=O)COc1ccc2ccccc2c1)[C@@H](C)CC)C(N)=O` [AP322, [2-Napthoxyacetyl]-[D-A]-G-R-I-D-R-I-NH2] ({Acetyl(2-naphthyloxy)}-[dA]GRIDRI-NH2), the “receptor binding affinity (Ki(app))” value [1] is reported as “greatly diminished activity”.
With `CC[C@H](C)[C@H](NC(=O)[C@H](CCCNC(=N)N)NC(=O)CNC(=O)CNC(=O)Cc1ccc2ccccc2c1)C(=O)N[C@@H](CC(=O)O)C(=O)N[C@@H](CCCNC(=N)N)C(=O)N[C@H](C(N)=O)C(C)C` [AP333, [2-Napthylacetyl]-G-G-R-I-D-R-V-NH2] ({Acetyl(2-naphthyl)}-GGRIDRV-NH2) the “receptor binding affinity (Ki(app))” value [1] was “greatly diminished activity”.
For (desNH2-F)-G-G-R-I-D-R-I-NH2 [AP132], the “[^125I]-rANP(126-150) binding to BASM cell-associated receptors” value [4] was “effectively prevent”.
“AFGGRIDRIGA-NH2 [AP101, A-F-G-G-R-I-D-R-I-G-A-NH2]” was tested, and the urinary sodium excretion [2, 5] was “significantly increased”, the “urine flow rate (urine volume)” value [2, 5] was “significantly increased” and the “[^125I]-rANP(126-150) binding to BASM cell-associated receptors” value [4] was “effectively prevent”. The “receptor binding affinity (Ki(app))” value [1] was “substantial Ki(app)s” and the “urine flow rate (urine volume)” value ([3]; infused at 5 µg/min via femoral vein) was “significantly increased”.
In the case of “GGRIDRIGAA-NH2 [AP105, G-G-R-I-D-R-I-G-A-A-NH2]”, the “receptor binding affinity (Ki(app))” value [1] is reported as “inactive”.
For RIDRIG-NH2 [AP125, R-I-D-R-I-G-NH2], the “receptor binding affinity (Ki(app))” value [1] was “inactive”.
